Laboratory results as given in US7320996B2, “Indolinone protein kinase inhibitors and cyclooxygenase inhibitors for use in combination therapy for the treatment of cancer” (Sugen, Inc, priority 2001, dated 2008).

Tests used:
[1] = molecular target: T1, PDGFR-β (NIH 3T3 cell lysate) (Homo sapiens, UniProt P09619); assay: PDGFR bioassay, ELISA; format: biochemical; settings: read-out: bio PDGF IC50
T1 construct: host or cells: NIH 3T3
Method: Corning 96-well Elisa plates • 2. 28D4C10 monoclonal anti-PDGFR antibody (SUGEN, Inc.). • 3. PBS. • 4. TBST Buffer. • 5. Blocking Buffer (same as for EGFR bioassay). • 6. PDGFR-β expressing NIH 3T3 cell lysate (SUGEN, Inc.). • 7. TBS Buffer. • 8. TBS+10% DMSO. • 9. ATP. • 10. MnCl2. • 11. Kinase buffer phosphorylation mix: for 10 ml, mix 250 μl 1M TRIS, 200 μl 5M NaCl, 100 μl 1M MnCl2 and 50 μl 100 mM Triton X-100 in enough dH2O to make 10 ml. • 12. NUNC 96-well V bottom polypropylene plates. • 13. EDTA. • 14. Rabbit polyclonal anti-phosphotyrosine serum (SUGEN, Inc.). • 15. Goat anti-rabbit IgG peroxidase conjugate (Biosource Cat. No. ALI0404). • 16. ABTS. • 17. Hydrogen peroxide, 30% solution. • 18. ABTS/H2O2. • 19. 0.2 M HCl. Procedure: • 1. Coat Corning 96 well ELISA plates with 0.5 μg 28D4C10 in 100 μl PBS per well, store overnight at 4° C. • 2. Remove unbound 28D4C10 from wells by inverting plate to remove liquid. • Wash 1×with dH2O. Pat the plate on a paper towel to remove excess liquid. • 3. Add 150 μl of Blocking Buffer to each well. Incubate for 30 min. at room temperature with shaking. • 4. Wash plate 3×with deionized water, then once with TBST. Pat plate on a paper towel to remove excess liquid and bubbles. • 5. Dilute lysate in HNTG (10 μg lysate/100 μl HNTG). • 6. Add 100 μl of diluted lysate to each well. Shake at room temperature for 60 min. • 7. Wash plates as described in Step 4. • 8. Add 80 μl working kinase buffer mix to ELISA plate containing captured PDGFR. • 9. […] Add 10 μl diluted test compound to ELISA plate. To control wells, add 10 μl TBS+10% DMSO. Incubate with shaking for 30 minutes at room temperature. • 11. Add 10 μl ATP directly to all wells except negative control well (final well volume should be approximately 100 μl with 20 μM ATP in each well.) Incubate 30 minutes with shaking. • 12. Stop reaction by adding 10 μl of EDTA solution to each well. • 13. Wash 4×with deionized water, twice with TBST. • 14. Add 100 μl anti-phosphotyrosine (1:3000 dilution in TBST) per well. Incubate with shaking for 30-45 min. at room temperature. • 15. Wash as in Step 4. • 16. […] Incubate with shaking for 30 min. at room temperature. • 17. Wash as in Step 4. • 18. Add 100 μl of ABTS/H2O2 solution to each well. • 19. Incubate 10 to 30 minutes with shaking. Remove any bubbles. • 20. If necessary stop reaction with the addition of 100 μl 0.2 M HCl per well. • 21.

EGFR (A431 cell lysate) = molecular target: T2, EGFR (A431 cell lysate) (Homo sapiens, UniProt P00533); assay: EGFR bioassay, ELISA; format: biochemical; settings: read-out: bio EGF IC50
T2 construct: A431 cell lysate (SUGEN, Inc.); host or cells: A431
Method: This assay is used to the in vitro kinase activity of FGF1-R in an ELISA assay.
Corning 96-well Elisa plates. • 2. SUMOL1 monoclonal anti-EGFR antibody (SUGEN, Inc.). • 3. PBS • 4. TBST Buffer • 5. Blocking Buffer: for 100 ml, mix 5.0 g Carnation Instant Non-fat Milk® with 100 ml of PBS. • 6. A431 cell lysate (SUGEN, Inc.). • 7. TBS Buffer: • 8.
bring to 1 liter total volume with dH2O. • 9. […] This reagent should be made up immediately prior to use and kept on ice. • 10. 1.0 mM MnCl2. • 11. […] Prepare just prior to use, keep on ice. • 12. NUNC 96-well V bottom polypropylene plates. • 13. EDTA. • 14. Rabbit polyclonal anti-phosphotyrosine serum (SUGEN, Inc.). • 15. Goat anti-rabbit IgG peroxidase conjugate (Biosource Cat. No. ALI0404). • 16. ABTS. • 17. 30% Hydrogen peroxide. • 18. ABTS/H2O2 • 19. 0.2 M HCl. Procedure: • 1. Coat Corning 96 well ELISA plates with 0.5 μg SUMO1 in 100 μl PBS per well, store overnight at 4° C. • 2. Remove unbound SUMO1 from wells by inverting plate to remove liquid. Wash 1×with dH2O. Pat the plate on a paper towel to remove excess liquid. • 3. Add 150 μl of Blocking Buffer to each well. Incubate, with shaking, for 30 min. at room temperature. • 4. Wash plate 3×with deionized water, then once with TBST. Pat plate on a paper towel to remove excess liquid and bubbles. • 5. Dilute lysate in PBS (7 μg lysate/100 μl PBS). • 6. Add 100 μl of diluted lysate to each well. Shake at room temperature for 1 hr. • 7. Wash plates as in 4, above. • 8. Add 120 μl TBS to ELISA plate containing captured EGFR. • 9. […] Add 13.5 μl diluted test compound to ELISA plate. To control wells, add 13.5 μl TBS in 10% DMSO. • 11. Incubate, with shaking, for 30 minutes at room temperature. • 12. Add 15 μl phosphorylation mix to all wells except negative control well. Final well volume should be approximately 150 μl with 3 μM ATP/5 mM MnCl2 final concentration in each well. Incubate with shaking for 5 minutes. • 13. Stop reaction by adding 16.5 μl of EDTA solution while shaking. Shake for additional 1 min. • 14. Wash 4×with deionized water, 2×with TBST. • 15. Add 100 μl anti-phosphotyrosine (1:3000 dilution in TBST) per well. Incubate, with shaking, for 30-45 min. at room temperature. • 16. Wash as in 4, above. • 17. […] Incubate with shaking for 30 min. at room temperature. • 18. Wash as in 4, above. • 19. Add 100 μl of ABTS/H2O2 solution to each well. • 20. Incubate 5 to 10 minutes with shaking. Remove any bubbles. • 21. If necessary, stop reaction by adding 100 μl 0.2 M HCl per well. • 22.

GST-Flk1 = molecular target: T3, GST-Flk1 (Mus musculus, UniProt P35918); assay: GST-FLK-1 bioassay (bio flkGST), ELISA; format: biochemical
T3 construct: GST-Flk1cd purified from sf9 recombinant baculovirus transformation (SUGEN, Inc.); host or cells: Sf9 (baculovirus)
Method: This assay analyzes the tyrosine kinase activity of GST-Flk1 on poly(glu,tyr) peptides.
• 1. […] Preparation of poly(glu,tyr)(pEY) coated assay plates: Coat 2 ug/well of poly(glu,tyr)(pEY) in 100 ul PBS, hold at room temperature for 2 hours or at 4° C. overnight. Cover plates well to prevent evaporation. • 4. […] When all reagents have dissolved, adjust the pH to 7.2 with HCl. Bring total volume to 1 L with dH2O. • 5. PBST Buffer: to 1 L of PBS Buffer, add 1.0 ml Tween-20. • 6. […] Adjust pH to 7.2 with HCl. Add 10 g BSA, stir to dissolve. Bring total volume to 1 L with dH2O. Filter to remove particulate matter. • 7. […] Adjust total volume to 1 L with PBS buffer, filter to remove particulate matter. • 8. 50 mM Hepes pH 7.5. • 9. GST-Flk1cd purified from sf9 recombinant baculovirus transformation (SUGEN, Inc.). • 10. 4% DMSO in dH2O. • 11. 10 mM ATP in dH2O. • 12. 40 mM MnCl2 • 13. […] Add 10 N NaOH until EDTA dissolves. Adjust pH to 8.0. Adjust total volume to 100 ml with dH2O. • 16. […] Anti-phosphotyrosine monoclonal antibody conjugated to horseradish peroxidase (PY99 HRP, Santa Cruz Biotech). • 18. 2,2′-Azinobis(3-ethylbenzthiazoline-6-sulfonic acid (ABTS, Moss, Cat. No. ABST). • 19. 10% SDS. Procedure: • 1. Coat Corning 96-well ELISA plates with 2 μg of polyEY peptide in sterile PBS as described in step 3 of Materials and Reagents. • 2. Remove unbound liquid from wells by inverting plate. Wash once with TBST. Pat the plate on a paper towel to remove excess liquid. • 3. Add 100 μl of 1% BSA in PBS to each well. Incubate, with shaking, for 1 hr. at room temperature. • 4. Repeat step 2. • 5. Soak wells with 50 mM HEPES (pH 7.5) (150 μl/well). • 6. Dilute test compound with dH2O/4% DMSO to 4 times the desired final assay concentration in 96-well polypropylene plates. • 7. Add 25 μl diluted test compound to ELISA plate. In control wells, place 25 μl of dH2O/4% DMSO. • 8. […] Add 25 μl 0.5M EDTA to negative control wells. • 10. Dilute GST-Flk1 to 0.005 μg (5 ng)/well with KDB. • 11. Add 50 μl of diluted enzyme to each well. • 12. Incubate, with shaking, for 15 minutes at room temperature. • 13. […] Wash 3×with TBST and pat plate on paper towel to remove excess liquid. • 15. […] Incubate, with shaking, for 90 min. at room temperature. • 16. Wash as in step 14. • 17. Add 100 μl of room temperature ABTS solution to each well. • 18. […] Remove any bubbles. • 19. Stop reaction by adding 20 μl of 10% SDS to each well. • 20.

[2] = molecular target: T4, HER-2 kinase (EGFr/HER-2 chimera/3T3-C7 cell line) (Homo sapiens, UniProt P04626); assay: Cellular HER-2 kinase assay, whole-cell ELISA; format: cell-based; settings: read-out: Her2 Kinase IC50
T4 construct: fused on or other part: EGFR extracellular part, stimulated by EGF and captured by the anti-EGFR antibody SUMO1; P00533 (Epidermal growth factor receptor)
Method: This assay is used to measure HER-2 kinase activity in whole cells in an ELISA format.
Fetal Bovine Serum (FBS, GIBCO Catalog #16000-044), heat inactivated in a water bath for 30 min. at 56° C. • 3. […] PBS. • 9. […] Corning 96-well ELISA Plates. • 12. NUNC 96-well V bottom polypropylene plates. • 13. […] SUMO 1: monoclonal anti-EGFR antibody (SUGEN, Inc.). • 15. TBST Buffer. • 16. Blocking Buffer: 5% Carnation Instant Milk® in PBS. • 17. […] Suspend powder in 100 uL of 10 mM HCl. Add 100 uL 10 mM NaOH. Add 800 uL PBS and transfer to an Eppendorf tube, store at −20° C. until ready to use. • 18. […] EDTA. • 20. Na3VO4. […] Boil in microwave for one minute (solution becomes clear). • Cool to room temperature. Adjust pH to 10. Repeat heating/cooling cycle until pH remains at 10. • 21. 200 mM Na4P2O7. • 22. Rabbit polyclonal antiserum specific for phosphotyrosine (anti-Ptyr antibody, SUGEN, Inc.). • 23. Affinity purified antiserum, goat anti-rabbit IgG antibody, peroxidase conjugate (Biosource Cat #ALI0404). • 24. ABTS Solution. • 25. 30% Hydrogen peroxide solution. • 26. ABTS/H2O2. • 27. 0.2 M HCl. Procedure: • 1. Coat Corning 96 well ELISA plates with SUMO1 at 1.0 ug per well in PBS, 100 ul final volume/well. Store overnight at 4° C. • 2. On day of use, remove coating buffer and wash plate 3 times with dH2O and once with TBST buffer. All washes in this assay should be done in this manner, unless otherwise specified. • 3. Add 100 ul of Blocking Buffer to each well. Incubate plate, with shaking, for 30 min. at room temperature. Just prior to use, wash plate. • 4. Use EGFr/HER-2 chimera/3T3-C7 cell line for this assay. • 5. Choose dishes having 80-90% confluence. Collect cells by trypsinization and centrifuge at 1000 rpm at room temperature for 5 min. • 6. Resuspend cells in starve medium and count with trypan blue. Viability above 90% is required. Seed cells in starve medium at a density of 2,500 cells per well, 90 ul per well, in a 96 well microtiter plate. Incubate seeded cells overnight at 37° under 5% CO2. • 7. Start the assay two days after seeding. • 8. Test compounds are dissolved in 4% DMSO. Samples are then further diluted directly on plates with starve-DMEM. Typically, this dilution will be 1:10 or greater. […] Incubate at 37° C. for 10 min. • 13. Remove test compound, EGF, and DMEM. Wash cells once with PBS. • 14. Transfer HNTG* to cells, 100 ul per well. Place on ice for 5 minutes. • Meanwhile, remove blocking buffer from ELISA plate and wash. • 15. Scrape cells from plate with a micropipettor and homogenize cell material by repeatedly aspirating and dispensing the HNTG* lysis buffer. Transfer lysate to a coated, blocked, washed ELISA plate. Or, use a Costar transfer cartridge to transfer lysate to the plate. • 16. Incubate, with shaking, at room temperature for 1 hr. • 17. Remove lysate, wash. Transfer freshly diluted anti-Ptyr antibody (1:3000 in TBST) to ELISA plate, 100 ul per well. • 18. Incubate, with shaking, at room temperature, for 30 min. • 19. Remove anti-Ptyr antibody, wash. Transfer freshly diluted BIOSOURCE antibody to ELISA plate (1:8000 in TBST, 100 ul per well). • 20. Incubate, with shaking, at room temperature for 30 min. • 21. Remove BIOSOURCE antibody, wash. Transfer freshly prepared ABTS/H2O2 solution to ELISA plate, 100 ul per well. • 22. […] Remove any bubbles. • 23. Stop reaction with the addition of 100 ul of 0.2M HCl per well. • 24.

human cdk2/cyclin A = molecular target: T5, human cdk2/cyclin A (Homo sapiens, UniProt P24941); assay: CDK2/cyclin A scintillation proximity assay (cdk2spa); format: biochemical; settings: read-out: cdk2spa C50
T5 construct: host or cells: Sf9
Method: Amersham Redivue [γ^33P] […] Amersham streptavidin coated polyvinyltoluene SPA beads (Amersham catalog #RPNQ0007). The beads should be reconstituted in PBS without magnesium or calcium, at 20 mg/ml. • 4. Activated cdk2/cyclin A enzyme complex purified from Sf9 cells (SUGEN, Inc.). • 5. Biotinylated peptide substrate (Debtide). […] The ultimate concentration per well will be 0.5 μM “cold” ATP, 0.1 μg Debtide and 0.2 μCi γ^33P ATP. • 7. […] 10 mM ATP in dH2O. • 9. 1M Tris, pH adjusted to 7.4 with HCl. • 10. 1M MgCl2. • 11. 1M DTT. • 12. […] 0.5M EDTA. • 14. […] Procedure: • 1. Prepare solutions of test compounds at 5×the desired final concentration in 5% DMSO. Add 10 ul to each well. For negative controls, use 10 ul 5% DMSO alone in wells. • 2. […] Add 20 ul enzyme to each well. • 4. Add 10 μL of 0.5 M EDTA to the negative control wells. • 5. To start kinase reaction, add 20 μL of peptide/ATP mixture to each well. • Incubate for 1 hr. without shaking. • 6. Add 200 μl stop solution to each well. • 7. Hold at least 10 min. • 8. […] Count plate using Trilux or similar reader.

T3 sequence (P35918 784-1345 limits assumed): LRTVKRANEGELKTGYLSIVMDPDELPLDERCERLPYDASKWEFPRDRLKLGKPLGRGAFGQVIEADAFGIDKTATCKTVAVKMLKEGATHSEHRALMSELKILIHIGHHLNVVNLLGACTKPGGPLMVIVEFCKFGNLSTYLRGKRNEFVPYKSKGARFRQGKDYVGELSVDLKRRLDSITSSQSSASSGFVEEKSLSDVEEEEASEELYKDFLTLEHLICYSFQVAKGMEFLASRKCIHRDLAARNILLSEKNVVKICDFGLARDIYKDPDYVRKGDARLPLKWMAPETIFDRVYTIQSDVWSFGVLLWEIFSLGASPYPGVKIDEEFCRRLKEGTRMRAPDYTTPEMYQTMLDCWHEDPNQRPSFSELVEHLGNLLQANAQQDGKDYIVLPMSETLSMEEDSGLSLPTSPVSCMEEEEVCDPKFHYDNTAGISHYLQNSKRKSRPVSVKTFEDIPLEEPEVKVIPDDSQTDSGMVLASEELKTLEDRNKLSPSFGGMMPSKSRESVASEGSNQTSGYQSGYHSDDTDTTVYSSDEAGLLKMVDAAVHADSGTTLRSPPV
T1 sequence (P09619 33-1106): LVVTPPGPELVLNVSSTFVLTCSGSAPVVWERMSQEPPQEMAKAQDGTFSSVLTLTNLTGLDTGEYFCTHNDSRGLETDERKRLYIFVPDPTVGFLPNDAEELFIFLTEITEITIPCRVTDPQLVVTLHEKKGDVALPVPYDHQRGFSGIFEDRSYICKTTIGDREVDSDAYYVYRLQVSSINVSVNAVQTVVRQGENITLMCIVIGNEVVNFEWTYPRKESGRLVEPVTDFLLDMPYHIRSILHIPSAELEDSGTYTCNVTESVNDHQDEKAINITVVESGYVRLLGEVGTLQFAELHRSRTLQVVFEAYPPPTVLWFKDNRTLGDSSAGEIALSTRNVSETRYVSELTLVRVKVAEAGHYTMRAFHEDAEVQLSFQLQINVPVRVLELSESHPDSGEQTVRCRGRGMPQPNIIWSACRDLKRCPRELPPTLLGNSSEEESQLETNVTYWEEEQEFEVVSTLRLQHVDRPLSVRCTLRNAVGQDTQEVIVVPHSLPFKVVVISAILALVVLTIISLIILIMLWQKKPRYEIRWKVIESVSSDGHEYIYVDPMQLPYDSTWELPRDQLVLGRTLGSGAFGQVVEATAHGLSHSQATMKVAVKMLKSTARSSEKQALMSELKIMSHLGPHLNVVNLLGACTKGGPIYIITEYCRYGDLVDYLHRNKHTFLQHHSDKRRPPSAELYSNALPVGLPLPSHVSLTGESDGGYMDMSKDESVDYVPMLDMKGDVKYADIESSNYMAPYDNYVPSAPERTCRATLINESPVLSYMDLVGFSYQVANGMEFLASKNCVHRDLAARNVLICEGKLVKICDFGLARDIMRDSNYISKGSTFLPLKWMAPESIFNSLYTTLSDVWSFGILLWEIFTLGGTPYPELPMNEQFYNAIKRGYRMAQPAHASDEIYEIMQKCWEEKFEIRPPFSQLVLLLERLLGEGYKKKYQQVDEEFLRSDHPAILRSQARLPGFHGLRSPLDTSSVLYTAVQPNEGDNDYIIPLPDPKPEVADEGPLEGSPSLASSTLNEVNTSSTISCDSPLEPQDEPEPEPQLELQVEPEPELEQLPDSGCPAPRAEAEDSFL
T4 sequence (P04626 720-987 limits assumed, change not shown): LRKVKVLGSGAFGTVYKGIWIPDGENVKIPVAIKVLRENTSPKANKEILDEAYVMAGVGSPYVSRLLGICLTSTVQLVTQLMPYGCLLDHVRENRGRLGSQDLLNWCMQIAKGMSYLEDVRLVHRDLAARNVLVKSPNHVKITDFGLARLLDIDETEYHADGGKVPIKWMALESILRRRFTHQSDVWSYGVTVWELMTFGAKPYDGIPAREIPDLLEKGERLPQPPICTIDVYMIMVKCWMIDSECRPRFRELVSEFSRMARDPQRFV
T2 sequence (P00533 25-1210): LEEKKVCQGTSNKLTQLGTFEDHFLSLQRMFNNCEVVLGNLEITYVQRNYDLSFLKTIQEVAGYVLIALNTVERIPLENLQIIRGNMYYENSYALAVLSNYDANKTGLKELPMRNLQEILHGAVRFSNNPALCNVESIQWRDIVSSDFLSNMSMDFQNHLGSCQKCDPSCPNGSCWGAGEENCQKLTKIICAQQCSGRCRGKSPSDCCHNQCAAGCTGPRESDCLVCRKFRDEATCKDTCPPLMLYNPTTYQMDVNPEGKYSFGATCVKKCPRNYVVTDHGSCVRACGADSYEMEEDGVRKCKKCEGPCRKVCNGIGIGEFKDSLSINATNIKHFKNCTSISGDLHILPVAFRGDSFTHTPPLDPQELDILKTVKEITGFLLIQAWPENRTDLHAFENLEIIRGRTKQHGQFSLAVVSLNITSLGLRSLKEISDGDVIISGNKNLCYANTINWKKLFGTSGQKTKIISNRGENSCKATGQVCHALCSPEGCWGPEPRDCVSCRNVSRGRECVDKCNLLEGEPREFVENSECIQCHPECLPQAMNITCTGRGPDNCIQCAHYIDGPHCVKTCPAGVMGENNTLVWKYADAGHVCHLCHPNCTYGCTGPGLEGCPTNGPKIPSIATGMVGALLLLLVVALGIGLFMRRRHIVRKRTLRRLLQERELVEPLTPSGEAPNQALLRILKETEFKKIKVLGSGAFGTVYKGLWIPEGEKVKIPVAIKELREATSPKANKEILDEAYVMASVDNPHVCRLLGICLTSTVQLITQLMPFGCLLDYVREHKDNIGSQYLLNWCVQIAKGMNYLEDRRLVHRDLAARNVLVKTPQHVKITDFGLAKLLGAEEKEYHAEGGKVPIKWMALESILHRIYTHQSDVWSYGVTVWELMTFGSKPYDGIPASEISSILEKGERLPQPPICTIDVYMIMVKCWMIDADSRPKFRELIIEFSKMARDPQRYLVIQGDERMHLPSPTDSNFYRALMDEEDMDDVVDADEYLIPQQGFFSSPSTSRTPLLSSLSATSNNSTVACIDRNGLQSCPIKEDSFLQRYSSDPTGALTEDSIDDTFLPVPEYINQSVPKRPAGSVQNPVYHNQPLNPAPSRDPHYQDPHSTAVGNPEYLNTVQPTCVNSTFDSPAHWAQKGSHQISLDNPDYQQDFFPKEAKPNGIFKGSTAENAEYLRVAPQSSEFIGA

SMILES	IC50 [1] [µM]	IC50 (EGFR (A431 cell lysate)) [µM]	IC50 (GST-Flk1) [µM]	IC50 [2] [µM]	IC50 (human cdk2/cyclin A) [µM]
Cc1cc(C(=O)NCCCN2CCCC2)[nH]c1/C=C1\C(=O)Nc2ccc(Br)cc21 [Example 6, 5-(5-Bromo-2-oxo-1,2-dihydroindol-3-ylidenemethyl)-4-methyl-1H-pyrrole-2-carboxylic Acid (3-pyrrolidin-1-yl-propyl)amide]	> 100	–	–	–	–
CCN(CC)CCCNC(=O)c1[nH]c(/C=C2\C(=O)Nc3ccc(OC)cc32)cc1C [Example 15, 5-(5-Methoxy-2-oxo-1,2-dihydroindol-3-ylidenemethyl)-3-methyl-1H-pyrrole-2-carboxylic Acid (3-diethylamino-propyl)amide]	> 100	> 100	> 20	–	–
CCN(CC)CCCNC(=O)c1[nH]c(/C=C2\C(=O)Nc3cc(OC)ccc32)cc1C [Example 16, 5-(6-Methoxy-2-oxo-1,2-dihydroindol-3-ylidenemethyl)-3-methyl-1H-pyrrole-2-carboxylic Acid (3-diethylamino-propyl)amide]	–	> 100	> 20	–	–
Cc1c(C(=O)NCCCN2CCOCC2)[nH]c(/C=C2\C(=O)Nc3ccc(Br)cc32)c1C(=O)c1ccccc1 [Example 22, 4-Benzoyl-5-(5-bromo-2-oxo-1,2-dihydroindol-3-ylidenemethyl)-3-methyl-1H-pyrrole-2-carboxylic Acid (3-morpholin-4-ylpropyl)amide]	> 100	> 100	> 20	–	–
Cc1c(C(=O)NCCCN2CCCC2)[nH]c(/C=C2\C(=O)Nc3ccc(Br)cc32)c1C(=O)c1ccccc1 [Example 24, 4-Benzoyl-5-(5-bromo-2-oxo-1,2-dihydroindol-3-ylidenemethyl)-3-methyl-1H-pyrrole-2-carboxylic Acid (3-pyrrolidin-1-ylpropyl)amide]	> 100	–	–	–	–
Cc1c(C(=O)NCCCN2CCCC2)[nH]c(/C=C2\C(=O)Nc3cc(-c4ccccc4)ccc32)c1C(=O)c1ccccc1 [Example 25, 4-Benzoyl-3-methyl-5-(2-oxo-6-phenyl-1,2-dihydroindol-3-ylidenemethyl)-1H-pyrrole-2-carboxylic Acid (3-pyrrolidin-1-ylpropyl)amide]	> 100	–	–	–	–
CC(=O)c1c(/C=C2\C(=O)Nc3ccc(Br)cc32)[nH]c(C(=O)NCCCN2CCOCC2)c1C [Example 31, 4-Acetyl-5-(5-bromo-2-oxo-1,2-dihydroindol-3-ylidenemethyl)-3-methyl-1H-pyrrole-2-carboxylic Acid (3-morpholin-4-ylpropyl)amide]	> 100	–	> 50	–	–
COc1ccccc1-c1ccc2c(c1)NC(=O)/C2=C\c1[nH]c(C)c(C(=O)NCCN2CCCC2)c1-c1ccccc1 [Example 43, 5-[6-(2-Methoxyphenyl)-2-oxo-1,2-dihydroindol-3-ylidenemethyl]-2-methyl-4-phenyl-1H-pyrrole-3-carboxylic Acid (2-pyrrolidin-1-ylethyl)amide]	–	> 100	–	–	–
COc1ccccc1-c1ccc2c(c1)NC(=O)/C2=C\c1[nH]c(C)c(C(=O)NCCN(C)C)c1-c1ccccc1 [Example 45, 5-[6-(2-Methoxyphenyl)-2-oxo-1,2-dihydroindol-3-ylidenemethyl]-2-methyl-4-phenyl-1H-pyrrole-3-carboxylic Acid (2-dimethylaminoethyl)amide]	> 100	> 100	–	> 100	–
CCN(CC)CCCNC(=O)c1c(C)[nH]c(/C=C2\C(=O)Nc3ccc(Br)cc32)c1-c1ccccc1 [Example 47, 5-(5-Bromo-2-oxo-1,2-dihydroindol-3-ylidenemethyl)-2-methyl-4-phenyl-1H-pyrrole-3-carboxylic Acid (3-diethylaminopropyl)amide]	–	–	–	–	> 20
Cc1[nH]c(/C=C2\C(=O)Nc3cc(-c4ccccc4)ccc32)c(C)c1C(=O)NCCN(C)C [Example 49, 2,4-Dimethyl-5-(2-oxo-6-phenyl-1,2-dihydroindol-3-ylidenemethyl)-1H-pyrrole-3-carboxylic Acid (2-dimethylaminoethyl)amide]	< 0.78	> 100	–	> 100	–
Cc1[nH]c(/C=C2\C(=O)Nc3ccc(Cl)cc32)c(C)c1C(=O)NCCN(C)C [Example 50, 5-(5-Chloro-2-oxo-1,2-dihydroindol-3-ylidenemethyl)-2,4-dimethyl-1H-pyrrole-3-carboxylic Acid (2-dimethylamino-ethyl)amide]	< 0.78	> 100	–	> 100	–
COc1ccccc1-c1ccc2c(c1)NC(=O)/C2=C\c1[nH]c(C)c(C(=O)NCCN(C)C)c1C [Example 54, 5-[6-(2-Methoxyphenyl)-2-oxo-1,2-dihydroindol-3-ylidenemethyl]-2,4-dimethyl-1H-pyrrole-3-carboxylic Acid (2-dimethylaminoethyl)amide]	< 0.78	–	–	–	–
CCN(CC)CCCNC(=O)c1c(C)[nH]c(/C=C2\C(=O)Nc3cc(-c4ccccc4)ccc32)c1C [Example 68, 2,4-Dimethyl-5-(2-oxo-6-phenyl-1,2-dihydroindol-3-ylidenemethyl)-1H-pyrrole-3-carboxylic Acid (3-diethylaminopropyl)amide]	–	> 100	–	–	–
CCN(CC)CCCNC(=O)c1c(C)[nH]c(/C=C2\C(=O)Nc3cccc(C(=O)Nc4ccc(OC)c(Cl)c4)c32)c1C [Example 69, 3-[4-(3-Diethylaminopropylcarbamoyl)-3,5-dimethyl-1H-pyrrol-2-ylmethylene]-2-oxo-2,3-dihydro-1H-indole-4-carboxylic Acid (3-chloro-4-methoxyphenyl)amide]	–	> 100	–	> 100	–
CCN(CC)CCNC(=O)c1c(C(C)C)[nH]c(/C=C2\C(=O)Nc3ccc(Br)cc32)c1C(C)C [Example 71]	–	> 100	–	–	–
Cc1[nH]c(/C=C2\C(=O)Nc3ccc(S(=O)(=O)N(C)C)cc32)c(C)c1C(=O)NCCN1CCCC1 [Example 82, 5-(5-Dimethylsulfamoyl-2-oxo-1,2-dihydroindol-3-ylidenemethyl)-2,4-dimethyl-1H-pyrrole-3-carboxylic Acid (2-pyrrolidin-1-ylethyl)amide]	–	> 100	–	> 100	–
Cc1[nH]c(/C=C2\C(=O)Nc3ccc(S(=O)(=O)Nc4ccccc4)cc32)c(C)c1C(=O)N1CCN(C)CC1 [Example 86, 3-[3,5-Dimethyl-4-(4-methylpiperazine-1-carbonyl)-1H-pyrrol-2-ylmethylene]-2-oxo-2,3-dihydro-1H-indole-5-sulfonic Acid Phenylamide]	–	–	–	> 100	–
CCN(CC)CCNC(=O)c1c(C)[nH]c(/C=C2\C(=O)Nc3ccc(S(=O)(=O)N(C)C)cc32)c1C [Example 87, 5-(5-Dimethylsulfamoyl-2-oxo-1,2-dihydroindol-3-ylidenemethyl)-2,4-dimethyl-1H-pyrrole-3-carboxylic Acid (2-diethylaminoethyl)amide]	–	> 100	–	–	–
CNS(=O)(=O)c1ccc2c(c1)/C(=C/c1[nH]cc(C(=O)O)c1C)C(=O)N2 [Example 115, 4-Methyl-5-(5-methylsulfamoyl-2-oxo-1,2-dihydro-indol-3-ylidenemethyl)-1H-pyrrole-3-carboxylic Acid]	7.48	–	7.3	> 100	0.006
CCOC(=O)CNC(=O)c1c[nH]c(/C=C2\C(=O)Nc3ccc(S(=O)(=O)NC)c(C)c32)c1C [Example 116, {[4-Methyl-5-(4-methyl-5-methylsulfamoyl-2-oxo-1,2-dihydro-indol-3-ylidenemethyl)-1H-pyrrole-3-carbonyl]-amino}-acetic Acid Ethyl Ester]	> 100	–	> 20	> 100	< 0.0005
CCOC(=O)CNC(=O)c1c[nH]c(/C=C2\C(=O)Nc3ccc(S(=O)(=O)NC)cc32)c1C [Example 117, {[4-Methyl-5-(5-methylsulfamoyl-2-oxo-1,2-dihydro-indol-3-ylidenemethyl)-1H-pyrrole-3-carbonyl]-amino}-acetic Acid Ethyl Ester]	–	> 100	–	> 100	–
CNS(=O)(=O)c1ccc2c(c1)/C(=C/c1[nH]cc(C(=O)NCC(=O)O)c1C)C(=O)N2 [Example 118, {[4-Methyl-5-(5-methylsulfamoyl-2-oxo-1,2-dihydro-indol-3-ylidenemethyl)-1H-pyrrole-3-carbonyl]-amino}-acetic Acid]	1.2	–	1.93	> 100	0.002
